For orientation: EC50 means the concentration giving half of the maximal effect. As usually defined, the AC50 is the concentration giving half of the maximal activity seen.

Each structure is given as a SMILES string. Calls of active or inactive are those of the source.

Test [1] in a line: cytotoxicity toward NIH3T3 fibroblasts, dose response, counter-screen, cell-based, ATP luminescence, mouse fibroblasts (AID 2010).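 Also: cells exposed to compound for about 90 hours before reading.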 The class given is functional. Background: A counterscreen serves to expose hits that act by an unwanted route or on another target.
Test [2] has as its target T1, Heat shock factor protein 1 (Mus musculus, UniProt P38532).
T1 sequence (P38532 whole entry): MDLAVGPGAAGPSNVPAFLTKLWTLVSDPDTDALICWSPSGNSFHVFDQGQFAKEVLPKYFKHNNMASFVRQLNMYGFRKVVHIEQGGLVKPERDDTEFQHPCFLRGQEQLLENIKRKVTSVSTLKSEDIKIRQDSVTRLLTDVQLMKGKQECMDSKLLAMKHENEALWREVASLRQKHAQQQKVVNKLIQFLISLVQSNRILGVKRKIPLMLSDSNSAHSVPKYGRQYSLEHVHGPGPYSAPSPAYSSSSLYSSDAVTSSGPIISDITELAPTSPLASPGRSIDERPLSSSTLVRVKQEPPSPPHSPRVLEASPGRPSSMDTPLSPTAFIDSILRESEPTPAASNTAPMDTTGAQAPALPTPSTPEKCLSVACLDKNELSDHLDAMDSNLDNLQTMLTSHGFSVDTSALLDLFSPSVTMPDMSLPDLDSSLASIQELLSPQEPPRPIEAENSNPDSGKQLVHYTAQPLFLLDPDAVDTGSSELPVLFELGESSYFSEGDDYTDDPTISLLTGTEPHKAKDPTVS
Briefly: inhibition of MG132-induced HSE-luciferase signal, confirmation, cell-based, NIH3T3, luminescence, dose retest (AID 2382).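 Also: NIH3T3 fibroblasts with HSF1-driven luciferase reporter stressed by proteasome inhibitor MG132; luminescence from HSF1-driven luciferase expression after 8 hours of MG132 stress.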 The class given is functional.

A short description of test [3]: inhibitors of intracellular T. cruzi replication, confirmation, NIH3T3 host cells, beta-gal luminescence (AID 2044).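 Also: intracellular parasites grown in NIH/3T3 mouse fibroblasts as host cells; luminescent beta-galactosidase reporter signal from transgenic T. cruzi replicating inside host cells; inhibitors lower the luminescence signal.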 Type of test: functional, cell-based.
Test [4] has as its system HEK293. Briefly: cells. Conditions: Homo sapiens.
A further test addresses Estrogen receptor beta (Homo sapiens, UniProt Q92731).
For test [5], the system named is HEK293. Briefly: cells. Conditions: Homo sapiens. The source holds these as a separate data set.
A short description of test [6]: Fluorescence-based cell-based high throughput dose response assay for inhibitors of the interaction of nucleotide-binding oligomerization domain containing 2 (NOD2) and the receptor-interacting serine-threonine kinase 2 (RIPK2). The class given is functional. The note with it: Homo sapiens.
Test [7] addresses ATP-dependent molecular chaperone HSP82 (Candida albicans (strain WO-1) (Yeast), UniProt C4YTQ8). The test can be described thus: loss of DOC-induced GRE-beta-galactosidase reporter signal, dose response, Hsp90 inhibitor project, S. cerevisiae, luminescence (AID 2400).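 Also: beta-galactosidase luminescence from glucocorticoid response element reporter as proxy for Hsp90 function; inhibitor potency where signal loss means Hsp90 inhibition.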 Type of test: functional, cell-based.
The next test has as its target Protein Wnt-3a (Mus musculus, UniProt P27467). The test can be described thus: Wnt3a-driven reporter signaling inhibition, dose response, selectivity assay for Gli-SUFU antagonist project, Wnt-LIGHT cells, luminescence (AID 651570).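 Also: Wnt-LIGHT reporter cells stimulated with conditioned medium from Wnt3a-producing cells.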 Type of test: functional. Conditions: read-out: IC50_Mean.
Test [8] deals with T2, Serine/threonine-protein phosphatase (Candida dubliniensis (strain CD36 / CBS 7987 / NCPF 3949 / NRRLY-17841) (Yeast), UniProt B9W6M3).
T2 sequence (B9W6M3 whole entry): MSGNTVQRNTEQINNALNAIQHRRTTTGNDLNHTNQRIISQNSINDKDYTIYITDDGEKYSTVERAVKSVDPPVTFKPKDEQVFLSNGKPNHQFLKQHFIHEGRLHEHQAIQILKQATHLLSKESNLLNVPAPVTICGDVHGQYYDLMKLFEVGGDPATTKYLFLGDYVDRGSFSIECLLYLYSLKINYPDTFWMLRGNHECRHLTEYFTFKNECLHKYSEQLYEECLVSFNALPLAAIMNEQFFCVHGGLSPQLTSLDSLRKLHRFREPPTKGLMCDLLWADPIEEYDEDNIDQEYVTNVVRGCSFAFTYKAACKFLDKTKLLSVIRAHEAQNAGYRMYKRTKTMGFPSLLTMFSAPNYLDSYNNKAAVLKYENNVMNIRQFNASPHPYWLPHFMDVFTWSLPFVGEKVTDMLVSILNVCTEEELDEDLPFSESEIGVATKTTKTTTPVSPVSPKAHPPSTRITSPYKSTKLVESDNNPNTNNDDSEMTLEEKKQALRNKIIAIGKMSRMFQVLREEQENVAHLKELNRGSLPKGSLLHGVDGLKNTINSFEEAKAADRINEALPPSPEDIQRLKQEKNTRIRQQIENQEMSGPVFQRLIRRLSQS
Briefly: calcineurin pathway inhibitors in yeast reporter, dose response, S. cerevisiae, CDRE-lacZ, luminescence, secondary (AID 2388).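 Also: yeast reporter cells carrying a calcineurin-responsive lacZ construct stimulated with calcium chloride; luminescent beta-galactosidase reporter signal in whole cells rather than isolated phosphatase activity; potency for inhibition where a drop in reporter signal means calcineurin blockade.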 The class given is functional, cell-based.

Test [9] can be described thus: C. albicans growth with fluconazole, confirmation, fluorescence, retest (AID 2467). Type of test: functional, cell-based.
The nature of test [10]: NIH-3T3 fibroblast cytotoxicity, dose response, cytotoxicity control, cell-based, fluorescence, Alamar Blue, secondary assay (AID 2327).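 Also: NIH-3T3 mouse fibroblasts cultured with fluconazole at 8 µg/mL.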 The class given is functional. (In general: Resazurin is reduced to fluorescent resorufin, in cell work by metabolically active cells.)
Test [11] in a line: cytotoxicity in MIN6 insulinoma cells, dose response, cytotoxicity control, cell-based, mouse insulinoma (AID 2122).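 Also: confirmatory high-throughput counterscreen run to flag cytotoxic compounds; mouse MIN-6 beta cells carrying an insulin promoter eGFP reporter.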 The class given is functional.
Test [12] in a line: insulin promoter down-regulators in MIN6 cells, imaging, high-content screening, mouse beta cells (AID 1628). The class given is functional.
The target of test [13] is Dual specificity tyrosine-phosphorylation-regulated kinase 1A (Rattus norvegicus, UniProt Q63470). Type of test: biochemical, Homo sapiens.
The target in test [14] is T3, Rac GTPase-activating protein 1 (Homo sapiens, UniProt Q9H0H5).
T3 sequence (Q9H0H5 whole entry): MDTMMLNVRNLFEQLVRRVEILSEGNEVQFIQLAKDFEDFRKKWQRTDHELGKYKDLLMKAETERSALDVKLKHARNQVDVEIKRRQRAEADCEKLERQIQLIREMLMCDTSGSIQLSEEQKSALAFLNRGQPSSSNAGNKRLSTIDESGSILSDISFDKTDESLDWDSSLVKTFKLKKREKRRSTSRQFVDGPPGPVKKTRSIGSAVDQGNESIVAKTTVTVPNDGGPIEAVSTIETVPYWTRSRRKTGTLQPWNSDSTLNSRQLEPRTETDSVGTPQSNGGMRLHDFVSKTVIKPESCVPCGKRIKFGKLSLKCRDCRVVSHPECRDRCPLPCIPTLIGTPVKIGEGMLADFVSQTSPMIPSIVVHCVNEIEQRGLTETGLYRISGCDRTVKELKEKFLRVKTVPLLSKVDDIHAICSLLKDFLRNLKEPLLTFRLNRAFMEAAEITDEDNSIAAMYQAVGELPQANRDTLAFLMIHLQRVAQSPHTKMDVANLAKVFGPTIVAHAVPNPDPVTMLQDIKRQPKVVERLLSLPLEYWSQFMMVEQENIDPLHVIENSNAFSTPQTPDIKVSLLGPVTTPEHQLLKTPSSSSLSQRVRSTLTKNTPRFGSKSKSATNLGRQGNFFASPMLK
The test can be described thus: MgcRacGAP GTPase-activating activity inhibitors, confirmation, biochemical, ADP Hunter fluorescence, primary and confirmatory (AID 624330). The class given is functional.

A further test deals with INS1. The test can be described thus: beta cell apoptosis inhibitors, cytokine rescue, dose response, luminescence, retest (AID 449756).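 Also: cell death triggered by IL-1 beta plus TNF-alpha plus IFN-gamma mixture; protective hits raise ATP signal compared with cytokine alone wells.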 The class given is functional, cell-based. Conditions: Rattus norvegicus.
Test [15] is described as follows: control 3'UTR Renilla luciferase suppression, dose response, counter-screen for Shn3 inhibitor project, cell-based, Clone20-Shn3RL, cherry-picked (AID 624133). The class given is functional.
Test [16] is described as follows: HepG2 cell cytotoxicity, dose response, cytotoxicity control for Shn3 inhibitor project, CellTiter-Glo, cherry-picked (AID 624134). The class given is functional, cell-based.
The next test concerns A-375. The test can be described thus: MITF: Counter assay: A375 proliferation Measured in Cell-Based System Using Plate Reader - 2084-03_Inhibitor_Dose_DryPowder_Activity. [Related pubchem assays (depositor defined):AID488944]. Type of test: functional. The note with it: Homo sapiens.
Test [17] in a line: Shn3 3'UTR reporter inhibitors, dose response, cell-based, Clone20 osteoblasts, firefly luciferase, cherry-picked (AID 624132).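 Also: firefly luciferase luminescence from reporter carrying the Shn3 3'UTR in osteoblasts.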 The class given is functional.
Test [18] in a line: Luminescence Cell-Based Dose Retest to Confirm Inhibitors of Cancer Stem Cells. [Related pubchem assays (depositor defined):AID2717, AID2721]. The class given is functional. Conditions: Homo sapiens.
The target of test [19] is T4, Microphthalmia-associated transcription factor (Homo sapiens, UniProt O75030).
T4 sequence (O75030 whole entry): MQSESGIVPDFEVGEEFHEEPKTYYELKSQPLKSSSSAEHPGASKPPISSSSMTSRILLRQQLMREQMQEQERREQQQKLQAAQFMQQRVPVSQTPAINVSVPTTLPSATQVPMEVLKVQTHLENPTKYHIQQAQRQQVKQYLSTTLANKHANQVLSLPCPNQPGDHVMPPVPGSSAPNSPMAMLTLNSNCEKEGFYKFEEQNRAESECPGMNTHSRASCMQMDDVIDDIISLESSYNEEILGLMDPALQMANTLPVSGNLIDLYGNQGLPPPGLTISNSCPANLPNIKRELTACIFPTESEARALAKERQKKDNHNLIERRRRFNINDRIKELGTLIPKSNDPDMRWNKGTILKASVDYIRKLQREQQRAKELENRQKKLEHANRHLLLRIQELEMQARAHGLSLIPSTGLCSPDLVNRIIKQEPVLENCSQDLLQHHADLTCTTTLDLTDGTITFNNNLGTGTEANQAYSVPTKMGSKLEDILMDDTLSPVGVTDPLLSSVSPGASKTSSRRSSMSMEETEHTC
The test can be described thus: TRPM1 promoter luciferase signal decrease, dose response, MITF inhibitor project, cell-based, SK-MEL-5, cherry-picked, set 3 (AID 493073).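 Also: SK-MEL-5 melanoma cells with luciferase driven by the MITF target TRPM1 promoter.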 Type of test: functional.

Test [20] can be described thus: inhibitors of SNCA 5'UTR-driven reporter translation, confirmation, H4 neuroglioma cells, luminescence (AID 1988). The class given is functional, cell-based.
A short description of test [21]: inhibitors of firefly luciferase expression or activity, dose response, H4 neuroglioma cells, luminescence (AID 1990). Type of test: functional, cell-based.
Test [22] can be described thus: Luminescence Cell-Based Dose Response HTS to Identify Inhibitors of 5'UTR Stem-Loop Driven Prion Protein mRNA Translation in H4 Neuroglioblastoma Cells. [Related pubchem assays: 1827 (Project Summary), 1813 (Primary HTS)]. The class given is functional.
The target of a further test is Large T antigen (Simian virus 40, UniProt P03070). Type of test: functional, Betapolyomavirus macacae.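 Also: Confirmatory-stage PubChem screen for compounds that inhibit SV40 T antigen.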
Chain of Large T antigen (P03070 whole entry): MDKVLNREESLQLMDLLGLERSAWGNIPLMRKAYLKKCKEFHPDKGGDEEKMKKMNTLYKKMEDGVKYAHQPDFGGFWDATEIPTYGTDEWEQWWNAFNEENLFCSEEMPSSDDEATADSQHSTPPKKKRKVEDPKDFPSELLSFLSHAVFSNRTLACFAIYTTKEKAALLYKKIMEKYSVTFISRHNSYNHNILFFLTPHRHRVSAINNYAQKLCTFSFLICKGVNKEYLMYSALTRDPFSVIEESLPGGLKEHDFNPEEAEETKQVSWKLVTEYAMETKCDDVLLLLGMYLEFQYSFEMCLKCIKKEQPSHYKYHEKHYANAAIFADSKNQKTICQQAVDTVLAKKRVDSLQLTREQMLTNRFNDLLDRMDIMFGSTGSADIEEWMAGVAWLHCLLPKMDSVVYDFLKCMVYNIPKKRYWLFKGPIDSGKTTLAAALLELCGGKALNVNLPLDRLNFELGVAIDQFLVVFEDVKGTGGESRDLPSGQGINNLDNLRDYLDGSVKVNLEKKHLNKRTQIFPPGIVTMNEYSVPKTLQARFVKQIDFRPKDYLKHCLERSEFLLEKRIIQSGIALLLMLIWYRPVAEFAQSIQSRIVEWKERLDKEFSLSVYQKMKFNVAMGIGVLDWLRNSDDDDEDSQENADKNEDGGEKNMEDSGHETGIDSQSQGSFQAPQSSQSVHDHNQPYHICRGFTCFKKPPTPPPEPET

Chain of ATP-dependent molecular chaperone HSP82 (C4YTQ8 whole entry): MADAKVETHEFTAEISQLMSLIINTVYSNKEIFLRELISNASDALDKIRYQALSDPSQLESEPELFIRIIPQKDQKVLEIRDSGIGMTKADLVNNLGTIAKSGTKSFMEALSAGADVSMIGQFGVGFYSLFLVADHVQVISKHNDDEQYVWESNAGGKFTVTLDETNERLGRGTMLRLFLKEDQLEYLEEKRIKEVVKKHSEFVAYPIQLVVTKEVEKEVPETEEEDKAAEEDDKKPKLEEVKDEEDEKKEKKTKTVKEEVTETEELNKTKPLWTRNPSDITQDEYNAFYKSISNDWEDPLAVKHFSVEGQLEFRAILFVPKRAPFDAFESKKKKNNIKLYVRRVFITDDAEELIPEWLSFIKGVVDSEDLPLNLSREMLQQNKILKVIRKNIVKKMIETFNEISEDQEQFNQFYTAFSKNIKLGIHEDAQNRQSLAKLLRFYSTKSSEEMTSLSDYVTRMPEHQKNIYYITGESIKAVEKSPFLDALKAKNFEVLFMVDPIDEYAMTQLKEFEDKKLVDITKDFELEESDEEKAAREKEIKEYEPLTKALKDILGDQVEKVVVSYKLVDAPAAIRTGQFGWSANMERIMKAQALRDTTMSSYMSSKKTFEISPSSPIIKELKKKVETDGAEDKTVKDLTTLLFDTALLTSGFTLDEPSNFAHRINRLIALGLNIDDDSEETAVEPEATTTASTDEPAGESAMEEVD
Chain of Protein Wnt-3a (P27467 whole entry): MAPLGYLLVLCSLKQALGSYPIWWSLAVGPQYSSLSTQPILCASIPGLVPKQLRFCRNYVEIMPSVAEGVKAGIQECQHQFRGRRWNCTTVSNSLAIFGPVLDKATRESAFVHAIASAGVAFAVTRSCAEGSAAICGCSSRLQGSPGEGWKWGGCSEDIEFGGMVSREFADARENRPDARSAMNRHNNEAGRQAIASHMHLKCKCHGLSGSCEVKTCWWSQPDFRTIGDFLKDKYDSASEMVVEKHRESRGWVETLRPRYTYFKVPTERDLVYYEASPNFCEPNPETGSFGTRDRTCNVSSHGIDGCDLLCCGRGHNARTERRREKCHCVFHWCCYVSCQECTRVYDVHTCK
Chain of Estrogen receptor beta (Q92731 whole entry): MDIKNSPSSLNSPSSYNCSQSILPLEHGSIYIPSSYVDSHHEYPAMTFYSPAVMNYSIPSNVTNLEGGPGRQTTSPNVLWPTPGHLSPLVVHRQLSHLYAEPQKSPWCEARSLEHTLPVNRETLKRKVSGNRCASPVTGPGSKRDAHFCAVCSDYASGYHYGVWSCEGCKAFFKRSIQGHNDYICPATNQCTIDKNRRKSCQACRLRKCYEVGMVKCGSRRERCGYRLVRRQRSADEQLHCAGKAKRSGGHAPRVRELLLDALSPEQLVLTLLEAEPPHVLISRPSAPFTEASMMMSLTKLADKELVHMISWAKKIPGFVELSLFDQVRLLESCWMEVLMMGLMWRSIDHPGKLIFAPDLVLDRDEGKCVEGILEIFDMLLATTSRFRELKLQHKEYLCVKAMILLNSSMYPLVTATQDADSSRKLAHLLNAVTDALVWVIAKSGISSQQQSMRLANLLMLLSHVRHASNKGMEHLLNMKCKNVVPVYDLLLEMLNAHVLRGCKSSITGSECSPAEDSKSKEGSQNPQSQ

As to `CCc1ccc(C(=O)Cn2ncc(Cl)c(Cl)c2=O)cc1`, the EC50 in [1] is 4.03 µM (active); in test [2], 5.77 µM (active); in [3], 2.19 µM (active); in the test with HEK293 [4], > 59.6 µM (inactive); in the test with HEK293 [5], > 59.6 µM (inactive). Also, the figures for the IC50 (on Estrogen receptor beta; in test [6]) were > 50 µM (not active) and 3.38 µM (active), respectively.

On to `CCc1ccccc1N=C(S)N=Nc1c(O)n(C)c2ccc(S(=O)(=O)N3CCOCC3)cc12`, for which the EC50 in test [7] is 40.9 µM (active); in test [8] it was > 180 µM (inactive); in test [9], > 38 µM (not active); in [10], > 150 µM (inconclusive). The IC50 on Protein Wnt-3a was 13.3 µM (active).

Consider `CCN(CC)C1=CC(=[N+]2CCCC2)CC(C)(C)C1`, for which the EC50 in test [1] was > 60 µM (inconclusive); in [3] it was 0.732 µM (active). The IC50 in test [11] and in test [12] was < 250 nM (active) throughout.

In the case of `Nc1cc2c([N+](=O)[O-])cccc2o1`, the AC50 in test [13] is 16.6 µM (active). Also, the IC50 in test [14] was 128 µM (active).

For `O=S(=O)(c1ccc(Cl)cc1)N1CCN(Cc2ccc(O)c3ncccc23)CC1`, the EC50 is > 30 µM (not active) in [1], 1.37 µM (active) in [3], 2.53 µM (active) in test [9] and 16.6 µM (active) in test [10]. Also, the half-maximal activity concentration (AC50) with INS1 was 2.42 µM (active); in [15] it was 16.4 µM (active); in test [16] it was 43.9 µM (active); with A-375 it was 40.6 µM (active); in [17], 3.01 µM (active); in test [18], 5.13 µM (active). Moreover, in [19], the AC50 is 4.37 µM (active).

On to `C/C=C/CSc1nc2c(c(=O)[nH]c(=O)n2C)n1Cc1ccc(C)cc1`, for which the EC50 in test [20] was 21.4 µM (active); in the test with HEK293 [4], > 59.6 µM (inactive); in test [21], 21.2 µM (active); in test [22], > 120 µM (not active); in the test with HEK293 [5], > 59.6 µM (inactive).

With `O=C(O)/C=C/c1ccc(O)cc1` [COUMARIC ACID], the IC50 on Large T antigen was 18.9 µM (active). For the same molecule, the AC50 in test [13] is 10.9 µM (active).

Consider `O=c1cc(-c2ccc(O)c(O)c2)oc2cc(O[C@@H]3O[C@H](CO)[C@@H](O)[C@H](O)[C@H]3O)cc(O)c12` [GALUTEOLIN], for which the AC50 in test [13] was 12.7 µM (active).
